Measurements: PMC9322451 (Clinical Pharmacology in Drug Development, 2022)

What was measured:
[1] = test system: multidrug and toxin extrusion transporters; design: method as in unpublished data; details: ref unpublished data, read-out: half maximal inhibitory concentration; cited from earlier work
CYP2B6 = test system: CYP2B6; design: method as in unpublished data; details: ref unpublished data; cited from earlier work
CYP1A2 = test system: CYP1A2; design: method as in unpublished data; details: ref unpublished data; cited from earlier work
[2] = Phase 1 part A: safety (TEAEs); type: in vivo, human; details: for Any TEAE / Headache (TEAE) / Nasopharyngitis (TEAE) / SAE / Severe TEAE / Skin exfoliation (TEAE) / TEAE leading to death / TEAE leading to discontinuation: Part A
Procedure: The study was conducted sequentially in 2 parts. […] Eligible participants were admitted to the clinical unit for single‐dose evaluation from days −2 to 2 and from days 29 to 31 for steady‐state PK and safety evaluation. Participants self‐administered daily doses after an overnight fast of at least 10 hours on days 4 to 30, with outpatient visits on days 3, 4, 7, 14, 21, 32, 33, and 61 (Figure S1). […] Dosing of the 40‐mg group commenced when the safety of 25 mg was deemed acceptable by both the investigator and the sponsor's (Insmed Incorporated, Bridgewater, New Jersey) medical monitor.
Safety was assessed from the signing of informed consent until the end of study and included the following variables: treatment‐emergent adverse events (TEAEs), serious adverse events (SAEs), clinical laboratory tests (clinical chemistry, hematology, coagulation [part A only], and urinalysis), vital signs, 12‐lead ECG, primary Holter monitoring, and physical examinations (including evaluation of teeth and gingiva, and evaluation of palms and soles). Because of the mechanism of action of brensocatib, findings of hyperkeratosis, periodontitis/gingivitis, and other infections were reported as adverse events of special interest (AESIs). Renal function (part A only) was monitored by measuring serum creatinine and blood urea nitrogen, performing routine urinalysis, and measuring neutrophil gelatinase–associated lipocalin and cystatin.
Adverse events (AEs) observed before the first dosing were recorded as medical history. All medical history and AEs were coded using the Medical Dictionary for Regulatory Activities (version 21.1 or higher). A TEAE was defined as an AE that began or worsened in severity after at least 1 dose of study drug was administered. All AEs experienced by a participant were monitored until the event had resolved, any abnormal laboratory values returned to baseline or stabilized, a satisfactory explanation for the changes was identified, or the participant was lost to follow‐up.

Cn1c(=O)oc2ccc(-c3ccc(C[C@@H](C#N)NC(=O)[C@@H]4CNCCCO4)cc3)cc21 [Brensocatib]
IC50 [1]: > 11 µM
CYP induction (significant inducer or not) (CYP2B6): not a significant
CYP inhibition (CYP1A2): no effect
Any TEAE ([2]; 10 mg, Japanese (n=8)): 3 (37.5) n (%)
Headache (TEAE) ([2]; 10 mg, Japanese (n=8)): 0 n (%)
Nasopharyngitis (TEAE) ([2]; 10 mg, Japanese (n=8)): 0 n (%)
SAE ([2]; 10 mg, Japanese (n=8)): 0 n (%)
Severe TEAE ([2]; 10 mg, Japanese (n=8)): 0 n (%)
Skin exfoliation (TEAE) ([2]; 10 mg, Japanese (n=8)): 1 (12.5) n (%)
TEAE leading to death ([2]; 10 mg, Japanese (n=8)): 0 n (%)
TEAE leading to discontinuation ([2]; 10 mg, Japanese (n=8)): 0 n (%)
Any TEAE ([2]; 10 mg, White (n=8)): 6 (75.0) n (%)
Headache (TEAE) ([2]; 10 mg, White (n=8)): 1 (12.5) n (%)
Nasopharyngitis (TEAE) ([2]; 10 mg, White (n=8)): 2 (25.0) n (%)
SAE ([2]; 10 mg, White (n=8)): 0 n (%)
Severe TEAE ([2]; 10 mg, White (n=8)): 0 n (%)
Skin exfoliation (TEAE) ([2]; 10 mg, White (n=8)): 0 n (%)
TEAE leading to death ([2]; 10 mg, White (n=8)): 0 n (%)
TEAE leading to discontinuation ([2]; 10 mg, White (n=8)): 0 n (%)
Any TEAE ([2]; 25 mg, Japanese (n=9)): 5 (55.6) n (%)
Headache (TEAE) ([2]; 25 mg, Japanese (n=9)): 3 (33.3) n (%)
Nasopharyngitis (TEAE) ([2]; 25 mg, Japanese (n=9)): 0 n (%)
SAE ([2]; 25 mg, Japanese (n=9)): 0 n (%)
Severe TEAE ([2]; 25 mg, Japanese (n=9)): 0 n (%)
Skin exfoliation (TEAE) ([2]; 25 mg, Japanese (n=9)): 2 (22.2) n (%)
TEAE leading to death ([2]; 25 mg, Japanese (n=9)): 0 n (%)
TEAE leading to discontinuation ([2]; 25 mg, Japanese (n=9)): 0 n (%)
Any TEAE ([2]; 25 mg, White (n=8)): 5 (62.5) n (%)
Headache (TEAE) ([2]; 25 mg, White (n=8)): 1 (12.5) n (%)
Nasopharyngitis (TEAE) ([2]; 25 mg, White (n=8)): 0 n (%)
SAE ([2]; 25 mg, White (n=8)): 0 n (%)
Severe TEAE ([2]; 25 mg, White (n=8)): 0 n (%)
Skin exfoliation (TEAE) ([2]; 25 mg, White (n=8)): 1 (12.5) n (%)
TEAE leading to death ([2]; 25 mg, White (n=8)): 0 n (%)
TEAE leading to discontinuation ([2]; 25 mg, White (n=8)): 0 n (%)
Any TEAE ([2]; 40 mg, Japanese (n=8)): 3 (37.5) n (%)
Headache (TEAE) ([2]; 40 mg, Japanese (n=8)): 0 n (%)
Nasopharyngitis (TEAE) ([2]; 40 mg, Japanese (n=8)): 0 n (%)
SAE ([2]; 40 mg, Japanese (n=8)): 0 n (%)
Severe TEAE ([2]; 40 mg, Japanese (n=8)): 0 n (%)
Skin exfoliation (TEAE) ([2]; 40 mg, Japanese (n=8)): 0 n (%)
TEAE leading to death ([2]; 40 mg, Japanese (n=8)): 0 n (%)
TEAE leading to discontinuation ([2]; 40 mg, Japanese (n=8)): 1 (12.5) n (%)
Any TEAE ([2]; 40 mg, White (n=8)): 5 (62.5) n (%)
Headache (TEAE) ([2]; 40 mg, White (n=8)): 2 (25.0) n (%)
Nasopharyngitis (TEAE) ([2]; 40 mg, White (n=8)): 0 n (%)
SAE ([2]; 40 mg, White (n=8)): 0 n (%)
Severe TEAE ([2]; 40 mg, White (n=8)): 0 n (%)
Skin exfoliation (TEAE) ([2]; 40 mg, White (n=8)): 1 (12.5) n (%)
TEAE leading to death ([2]; 40 mg, White (n=8)): 0 n (%)
TEAE leading to discontinuation ([2]; 40 mg, White (n=8)): 0 n (%)
Any TEAE ([2]; pooled brensocatib (N=49)): 27 (55.1) n (%)
Headache (TEAE) ([2]; pooled brensocatib (N=49)): 7 (14.3) n (%)
Nasopharyngitis (TEAE) ([2]; pooled brensocatib (N=49)): 2 (4.1) n (%)
SAE ([2]; pooled brensocatib (N=49)): 0 n (%)
Severe TEAE ([2]; pooled brensocatib (N=49)): 0 n (%)
Skin exfoliation (TEAE) ([2]; pooled brensocatib (N=49)): 5 (10.2) n (%)
TEAE leading to death ([2]; pooled brensocatib (N=49)): 0 n (%)
TEAE leading to discontinuation ([2]; pooled brensocatib (N=49)): 1 (2.0) n (%)
Renal toxicity assessments ([2]; part A): no signs of acute kidney injury
participants treated with brensocatib who experienced ≥1 TEAE ([2]; part A): 55.1%
AESIs (hyperkeratosis, periodontitis/gingivitis, other infections) ([2]; parts A and B): None of these AESIs were evident
SAEs, severe TEAEs, deaths during the study ([2]; parts A and B): No SAEs, severe TEAEs, or deaths occurred
tolerability ([2]; single and multiple administration 10, 25, and 40 mg for 28 days, healthy Japanese and White participants): well tolerated
